Results reported in ChEMBL document CHEMBL2010689 (J Med Chem, 2012).
Activity calls are given as the source filed them. The calls are words filed in the database; no cut-off is given here.

Tests used:
[1] = Antitumor activity against human U251MG cells xenografted in athymic nude mouse assessed as partial tumor regression at 3 mg/kg, po bid; format: functional, U-251
[2] = Antitumor activity against human U251MG cells xenografted in athymic nude mouse assessed as complete tumor regression at 1 mg/kg, po bid; format: functional, U-251
[3] = Toxicity in dog purkinje fibres assessed as drug-induced change in action potential; format: tissue-based, Canis lupus familiaris, Purkinje fiber
[4] = Metabolic stability in rat liver S9 fraction assessed as compound remaining after 2 hrs; format: ADME, subcellular; details: read-out: Stability
[5] = Metabolic stability in mouse liver S9 fraction assessed as compound remaining after 2 hrs; format: ADME, subcellular; details: read-out: Stability
[6] = Clearance in Sprague-Dawley rat at 0.8 mg/kg, iv; format: ADME, organism-based; design: dose 0.8 mg/kg, route intravenous; details: in vivo
[7] = Cmax in Sprague-Dawley rat at 5 mg/kg, po; format: ADME, organism-based; design: dose 5 mg/kg, route oral; details: in vivo
[8] = Volume of distribution in cynomolgus monkey at 0.5 mg/kg, iv; format: ADME, organism-based, Macaca fascicularis; design: dose 0.5 mg/kg, route intravenous; details: in vivo
Cytochrome P450 3A4 [9] = biological target: T1, Cytochrome P450 3A4 (Homo sapiens, UniProt P08684); experiment: Inhibition of CYP3A4; format: ADME
T1 sequence (P08684 whole entry): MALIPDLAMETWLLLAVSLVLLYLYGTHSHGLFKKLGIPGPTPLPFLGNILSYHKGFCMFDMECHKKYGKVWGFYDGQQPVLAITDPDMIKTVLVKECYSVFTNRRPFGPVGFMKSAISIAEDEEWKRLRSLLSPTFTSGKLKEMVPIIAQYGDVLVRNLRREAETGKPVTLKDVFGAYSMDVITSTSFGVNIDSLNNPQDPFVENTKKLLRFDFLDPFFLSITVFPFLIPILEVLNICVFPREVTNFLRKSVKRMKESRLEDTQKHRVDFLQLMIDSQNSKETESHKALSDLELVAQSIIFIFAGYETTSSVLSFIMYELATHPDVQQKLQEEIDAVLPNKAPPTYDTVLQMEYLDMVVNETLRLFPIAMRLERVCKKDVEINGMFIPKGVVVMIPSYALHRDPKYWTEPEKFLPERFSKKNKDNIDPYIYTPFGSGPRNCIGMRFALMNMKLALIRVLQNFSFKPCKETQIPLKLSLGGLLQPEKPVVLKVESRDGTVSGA

Cytochrome P450 3A4 [10] = biological target: T1, Cytochrome P450 3A4; experiment: Induction of CYP3A4; format: ADME
[11] = Plasma protein binding in human; format: ADME, cell-free; details: read-out: PPB (converted)
[12] = biological target: Platelet-derived growth factor receptor alpha (Homo sapiens, UniProt P16234); experiment: Inhibition of human PDGFRalpha using ATP as substrate
Chain of Platelet-derived growth factor receptor alpha (P16234 whole entry): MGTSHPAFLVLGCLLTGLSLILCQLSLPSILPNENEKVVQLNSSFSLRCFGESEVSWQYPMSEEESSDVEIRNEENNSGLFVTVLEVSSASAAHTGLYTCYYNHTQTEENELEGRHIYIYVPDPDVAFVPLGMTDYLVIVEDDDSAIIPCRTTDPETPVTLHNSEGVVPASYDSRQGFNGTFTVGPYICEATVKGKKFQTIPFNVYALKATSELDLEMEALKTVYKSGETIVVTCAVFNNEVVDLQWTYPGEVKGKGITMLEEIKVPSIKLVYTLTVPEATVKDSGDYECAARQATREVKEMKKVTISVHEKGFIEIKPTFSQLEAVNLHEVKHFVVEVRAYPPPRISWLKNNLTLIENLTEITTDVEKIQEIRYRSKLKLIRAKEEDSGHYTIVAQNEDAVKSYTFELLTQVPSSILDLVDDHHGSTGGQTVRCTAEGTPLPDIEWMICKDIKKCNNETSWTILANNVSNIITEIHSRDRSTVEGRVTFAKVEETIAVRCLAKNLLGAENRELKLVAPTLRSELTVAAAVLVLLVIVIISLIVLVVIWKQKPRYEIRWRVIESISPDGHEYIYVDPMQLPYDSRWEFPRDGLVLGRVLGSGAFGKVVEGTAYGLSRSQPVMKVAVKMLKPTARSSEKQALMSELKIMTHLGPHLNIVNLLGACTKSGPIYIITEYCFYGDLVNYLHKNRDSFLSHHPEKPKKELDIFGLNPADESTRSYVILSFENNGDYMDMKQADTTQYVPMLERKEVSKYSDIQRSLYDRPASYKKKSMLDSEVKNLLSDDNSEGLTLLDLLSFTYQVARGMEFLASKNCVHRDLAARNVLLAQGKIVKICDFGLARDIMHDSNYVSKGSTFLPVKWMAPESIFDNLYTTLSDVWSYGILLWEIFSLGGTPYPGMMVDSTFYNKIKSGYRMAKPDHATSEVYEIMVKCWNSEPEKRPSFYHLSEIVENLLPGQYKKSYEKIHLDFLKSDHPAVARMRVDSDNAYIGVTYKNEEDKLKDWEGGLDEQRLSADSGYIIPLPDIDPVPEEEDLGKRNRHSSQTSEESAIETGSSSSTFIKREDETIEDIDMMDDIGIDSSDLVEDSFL

[13] = biological target: High affinity nerve growth factor receptor (Homo sapiens, UniProt P04629); experiment: Inhibition of human TRK-A using ATP as substrate
Chain of High affinity nerve growth factor receptor (P04629 whole entry): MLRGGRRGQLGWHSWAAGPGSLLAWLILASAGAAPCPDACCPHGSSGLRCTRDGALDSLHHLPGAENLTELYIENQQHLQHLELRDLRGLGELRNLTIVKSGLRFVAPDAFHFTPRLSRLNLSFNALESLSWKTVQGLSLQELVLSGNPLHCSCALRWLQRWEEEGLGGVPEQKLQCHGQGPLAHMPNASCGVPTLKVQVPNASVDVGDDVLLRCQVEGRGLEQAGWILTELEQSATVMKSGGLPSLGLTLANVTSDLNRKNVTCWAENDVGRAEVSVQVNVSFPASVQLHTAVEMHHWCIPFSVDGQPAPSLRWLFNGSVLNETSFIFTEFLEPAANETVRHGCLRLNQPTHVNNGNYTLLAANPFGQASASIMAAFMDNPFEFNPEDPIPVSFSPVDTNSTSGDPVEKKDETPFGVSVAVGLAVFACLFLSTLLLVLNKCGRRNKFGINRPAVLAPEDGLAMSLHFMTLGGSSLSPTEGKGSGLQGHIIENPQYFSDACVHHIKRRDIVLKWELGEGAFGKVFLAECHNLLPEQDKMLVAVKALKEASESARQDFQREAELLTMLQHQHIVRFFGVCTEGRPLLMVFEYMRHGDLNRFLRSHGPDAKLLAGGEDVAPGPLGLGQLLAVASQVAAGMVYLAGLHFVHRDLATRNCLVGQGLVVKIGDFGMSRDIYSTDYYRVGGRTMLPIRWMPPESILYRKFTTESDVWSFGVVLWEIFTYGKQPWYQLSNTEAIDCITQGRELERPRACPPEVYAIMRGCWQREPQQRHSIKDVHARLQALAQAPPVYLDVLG

[14] = biological target: Hepatocyte growth factor receptor (Homo sapiens) (UniProt P08581); experiment: Inhibition of cMET at 1 uM
[15] = biological target: Epidermal growth factor receptor (Homo sapiens) (UniProt P00533); experiment: Inhibition of EGFR at 1 uM
Chain of Epidermal growth factor receptor (Homo sapiens) (P00533 whole entry): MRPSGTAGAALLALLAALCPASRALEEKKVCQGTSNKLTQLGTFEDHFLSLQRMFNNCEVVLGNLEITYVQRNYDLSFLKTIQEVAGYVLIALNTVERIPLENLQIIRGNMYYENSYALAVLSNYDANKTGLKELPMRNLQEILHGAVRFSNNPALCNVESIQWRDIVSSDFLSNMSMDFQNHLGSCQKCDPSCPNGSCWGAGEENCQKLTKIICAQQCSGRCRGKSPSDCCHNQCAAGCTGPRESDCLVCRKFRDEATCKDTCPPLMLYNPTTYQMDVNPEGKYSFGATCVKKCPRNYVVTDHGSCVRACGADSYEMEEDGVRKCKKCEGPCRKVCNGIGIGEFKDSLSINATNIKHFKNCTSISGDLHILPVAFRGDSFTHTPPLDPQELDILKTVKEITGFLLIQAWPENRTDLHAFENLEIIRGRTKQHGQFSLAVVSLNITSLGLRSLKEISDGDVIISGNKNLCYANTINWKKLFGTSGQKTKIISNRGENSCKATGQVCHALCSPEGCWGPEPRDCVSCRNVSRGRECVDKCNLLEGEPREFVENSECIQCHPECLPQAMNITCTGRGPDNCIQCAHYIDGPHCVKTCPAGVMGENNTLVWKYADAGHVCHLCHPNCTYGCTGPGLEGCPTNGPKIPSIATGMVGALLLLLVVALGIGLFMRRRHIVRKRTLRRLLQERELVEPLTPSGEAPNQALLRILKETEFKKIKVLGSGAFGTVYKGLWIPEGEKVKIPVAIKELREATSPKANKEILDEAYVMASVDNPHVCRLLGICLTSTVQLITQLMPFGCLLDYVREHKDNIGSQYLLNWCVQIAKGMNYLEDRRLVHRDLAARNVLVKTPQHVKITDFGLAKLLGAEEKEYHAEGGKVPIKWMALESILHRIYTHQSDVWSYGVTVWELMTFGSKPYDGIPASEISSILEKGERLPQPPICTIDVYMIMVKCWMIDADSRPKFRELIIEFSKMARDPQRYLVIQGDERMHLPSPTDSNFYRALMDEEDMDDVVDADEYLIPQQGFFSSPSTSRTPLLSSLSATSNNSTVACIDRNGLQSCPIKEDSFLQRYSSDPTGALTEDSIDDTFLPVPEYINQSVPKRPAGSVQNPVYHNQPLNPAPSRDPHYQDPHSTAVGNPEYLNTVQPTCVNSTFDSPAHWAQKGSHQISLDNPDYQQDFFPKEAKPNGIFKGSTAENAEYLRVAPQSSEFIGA

[16] = biological target: Glycogen synthase kinase-3 beta (Homo sapiens) (UniProt P49841); experiment: Inhibition of GSK3beta at 1 uM
Chain of Glycogen synthase kinase-3 beta (Homo sapiens) (P49841 whole entry, looked up): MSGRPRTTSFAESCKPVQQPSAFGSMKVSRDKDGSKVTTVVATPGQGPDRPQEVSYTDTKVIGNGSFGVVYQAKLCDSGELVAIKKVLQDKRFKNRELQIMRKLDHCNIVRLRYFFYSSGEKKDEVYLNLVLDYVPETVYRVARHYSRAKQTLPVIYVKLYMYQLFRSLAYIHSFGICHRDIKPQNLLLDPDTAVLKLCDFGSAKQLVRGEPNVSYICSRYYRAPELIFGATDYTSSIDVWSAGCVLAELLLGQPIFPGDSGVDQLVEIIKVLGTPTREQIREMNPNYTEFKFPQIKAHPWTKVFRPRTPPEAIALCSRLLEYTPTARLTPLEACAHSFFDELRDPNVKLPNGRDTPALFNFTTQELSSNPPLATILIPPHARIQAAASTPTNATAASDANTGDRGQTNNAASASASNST

[17] = Inhibition of MKK at 1 uM
[18] = Inhibition of PKC at 1 uM
Adenosine receptor A2a = Adenosine receptor A2a (Homo sapiens, UniProt P29274); experiment: Inhibition of adenosine A2A receptor at 10 uM
Chain of Adenosine receptor A2a (P29274 whole entry): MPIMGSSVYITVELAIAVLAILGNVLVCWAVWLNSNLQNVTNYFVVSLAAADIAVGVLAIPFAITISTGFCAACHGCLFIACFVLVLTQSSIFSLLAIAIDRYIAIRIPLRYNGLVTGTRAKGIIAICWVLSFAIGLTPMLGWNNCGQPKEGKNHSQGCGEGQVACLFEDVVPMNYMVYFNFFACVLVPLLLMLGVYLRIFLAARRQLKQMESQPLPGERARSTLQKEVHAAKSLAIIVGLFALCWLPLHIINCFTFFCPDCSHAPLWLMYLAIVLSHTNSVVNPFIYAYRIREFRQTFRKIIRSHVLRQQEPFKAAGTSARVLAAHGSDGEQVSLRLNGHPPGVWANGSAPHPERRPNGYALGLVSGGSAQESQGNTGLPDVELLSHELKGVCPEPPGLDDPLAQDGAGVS

[19] = biological target: Muscarinic acetylcholine receptor M2 (Homo sapiens) (UniProt P08172); experiment: Inhibition of muscarinic M2 receptor at 10 uM
[20] = biological target: Substance-K receptor (Homo sapiens) (UniProt P21452); experiment: Inhibition of neurokinin NK2 receptor at 10 uM
Chain of Substance-K receptor (Homo sapiens) (P21452 whole entry): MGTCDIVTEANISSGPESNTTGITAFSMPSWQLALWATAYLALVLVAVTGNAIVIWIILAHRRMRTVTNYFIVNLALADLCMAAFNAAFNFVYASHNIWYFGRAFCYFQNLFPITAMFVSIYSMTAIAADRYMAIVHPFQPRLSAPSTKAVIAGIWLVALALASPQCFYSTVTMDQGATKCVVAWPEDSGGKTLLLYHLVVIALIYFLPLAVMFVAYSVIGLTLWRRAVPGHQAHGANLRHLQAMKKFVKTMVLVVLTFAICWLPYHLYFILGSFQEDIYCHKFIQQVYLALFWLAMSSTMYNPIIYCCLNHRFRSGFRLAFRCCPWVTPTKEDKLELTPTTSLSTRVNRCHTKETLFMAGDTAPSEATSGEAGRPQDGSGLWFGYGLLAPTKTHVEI

HUVEC [21] = experiment: Antiangiogenic activity in HUVEC assessed as inhibition of capillary-tube formation by matrigel assay; format: functional, cell-based; details: Homo sapiens
[22] = Antiangiogenic activity in BAEC assessed as inhibition of FGF-induced proliferation; format: functional; details: Bos taurus
HUVEC [23] = experiment: Antiangiogenic activity in HUVEC assessed as inhibition of VEGF-induced migration; format: functional, cell-based; details: Homo sapiens
[24] = Antiangiogenic activity in HMVEC assessed as inhibition of VEGF-induced migration; format: functional; details: Homo sapiens
[25] = Antiangiogenic activity in BAEC assessed as inhibition of VEGF-induced survival; format: functional, Bos taurus
[26] = Antiangiogenic activity in HMVEC assessed as inhibition of FGF-induced survival; format: functional, Homo sapiens
[27] = Antiangiogenic activity in BAEC assessed as inhibition of FGF-induced survival; format: functional, Bos taurus
[28] = Antitumor activity against human U251MG cells xenografted in athymic nude mouse assessed as tumor growth inhibition at 30 mg/kg, po bid measured on day 29 relative to control; format: functional; details: U-251, 696 h, read-out: GI
[29] = Cmax in athymic nude mouse plasma xenografted with human U251MG cells at 30 mg/kg, po; format: ADME, organism-based, U-251; design: dose 30 mg/kg, route oral
A-375 [30] = experiment: Antitumor activity against human A375 cells xenografted in athymic nude mouse assessed as tumor growth inhibition at 1 mg/kg, po bid measured on day 29 relative to control; format: functional; details: A-375, 696 h, read-out: GI
A-375 [31] = experiment: Antitumor activity against human A375 cells xenografted in athymic nude mouse assessed as tumor growth inhibition at 10 mg/kg, po bid measured on day 29 relative to control; format: functional; details: A-375, 696 h, read-out: GI
Mus musculus [32] = experiment: Toxicity in athymic nude mouse bearing human U251MG cells assessed as body weight change at 1 to 30 mg/kg, po; format: organism-based, U-251; design: dose 1-30 mg/kg, route oral; details: in vivo
Mus musculus [33] = experiment: Toxicity in athymic nude mouse bearing human U251MG cells assessed as morbidity at 1 to 30 mg/kg, po; format: organism-based, U-251; design: dose 1-30 mg/kg, route oral; details: in vivo
P388 [34] = experiment: Antitumor activity against mouse P388 cells xenografted in DBA/2 mouse assessed as mean survival at 30 mg/kg, po bid (reference value: 14 days); format: functional
P388 [35] = experiment: Antitumor activity against mouse P388 cells xenografted in DBA/2 mouse assessed as mean survival at 30 mg/kg, po bid for 14 days followed by readministeration after 7 days; format: functional
A-375 [36] = experiment: Antitumor activity against human A375 cells xenografted in athymic nude mouse assessed as complete tumor regression at 0.3 mg/kg, po bid
P388 [37] = experiment: Antitumor activity against mouse P388 cells xenografted in DBA/2 mouse assessed as mean survival at 30 mg/kg, po qd for 7 days followed by readministeration

For `CC(C)Cn1c2ccc(Nc3ncccn3)cc2c2c3c(c4c(c21)CCc1nn(C)cc1-4)C(=O)NC3` [CEP-11981], the Activity [1] was 0%, the Activity [2] was 0% and the Activity [3] was “Non-toxic”. For the same molecule, the remaining at 2 h [4] was 65%, the remaining at 2 h [5] was 65% and the clearance [6] was 4.3 mL/min/kg. The Cmax [7] was 1330 ng/mL, the Vd [8] was 2.6 L/kg and the IC50 (Cytochrome P450 3A4 [9]) was greater than 30000 nM. The Activity (Cytochrome P450 3A4 [10]) was “Not Active”, the fraction unbound [11] was 0.05 and the IC50 [12] was 246 nM. The IC50 [13] was 3 nM, the inhibition [14] was “Active” and the inhibition [15] was “Active”. For the same molecule, the inhibition [16] was “Active”, the inhibition [17] was “Active” and the inhibition [18] was “Active”. It also gave an inhibition (Adenosine receptor A2a) greater than 80%, an inhibition [19] greater than 80% and an inhibition [20] greater than 80%. It also gave an EC50 (HUVEC [21]) of 2 nM, an EC50 [22] of 8 nM and an EC50 (HUVEC [23]) of 8 nM. The EC50 [24] was 8 nM, the EC50 [25] was 8 nM and the EC50 [26] was 8 nM. It also gave an EC50 [27] of 8 nM, an inhibition in vivo at 30 mg/kg [28] of 88% and a Cmax [29] of 1200 ng/mL. The inhibition in vivo at 1 mg/kg (A-375 [30]) was 73%, the inhibition in vivo at 10 mg/kg (A-375 [31]) was 98% and the Activity (Mus musculus [32]) was “Non-toxic”. The Activity (Mus musculus [33]) was “Non-toxic”, the MSD (P388 [34]) was 27.5 days and the MSD (P388 [35]) was 27.5 days. The Activity (A-375 [36]) was 10% and the MSD (P388 [37]) was 20.5 days.
